Experimental data taken from patent US10508285B2, “Method for screening of genes conferring increased tolerance to herbicides” (priority 2014, dated 2019).

Assays:
[1] = test system: Cytochrome P450 wildtype (Zea mays); assay: Herbicide tolerance of transiently transformed tobacco leaf discs, PSII yield (PAM imaging); conditions: IC50 of PSII yield inhibition, Nicotiana benthamiana leaf discs expressing Zea mays Cytochrome P450 wildtype versus empty vector-transformed leaf discs
[2] = test system: Protoporphyrinogen IX Oxidase (PPO) L397Q_F420M; format: cell-based, Amaranthus tuberculatus
[3] = test system: Protoporphyrinogen IX Oxidase (PPO) wildtype; assay: Herbicide tolerance of transiently transformed tobacco leaf discs, PSII yield (PAM imaging); format: cell-based; conditions: IC50 of PSII yield inhibition, Nicotiana benthamiana leaf discs expressing Alopecurus myosuroides PPO wildtype versus empty vector-transformed leaf discs
[4] = target: T1, Transketolase wildtype (Spinacia oleracea) (Spinacia oleracea, UniProt O20250); assay: as above; format: cell-based; conditions: IC50 of PSII yield inhibition, Nicotiana benthamiana leaf discs expressing Spinacia oleracea Transketolase wildtype versus empty vector-transformed leaf discs
T1 construct: expressed in transfected cells; host or cells: Nicotiana benthamiana leaves, Agrobacterium tumefaciens GV2260 infiltration
T1 sequence (O20250 67-741): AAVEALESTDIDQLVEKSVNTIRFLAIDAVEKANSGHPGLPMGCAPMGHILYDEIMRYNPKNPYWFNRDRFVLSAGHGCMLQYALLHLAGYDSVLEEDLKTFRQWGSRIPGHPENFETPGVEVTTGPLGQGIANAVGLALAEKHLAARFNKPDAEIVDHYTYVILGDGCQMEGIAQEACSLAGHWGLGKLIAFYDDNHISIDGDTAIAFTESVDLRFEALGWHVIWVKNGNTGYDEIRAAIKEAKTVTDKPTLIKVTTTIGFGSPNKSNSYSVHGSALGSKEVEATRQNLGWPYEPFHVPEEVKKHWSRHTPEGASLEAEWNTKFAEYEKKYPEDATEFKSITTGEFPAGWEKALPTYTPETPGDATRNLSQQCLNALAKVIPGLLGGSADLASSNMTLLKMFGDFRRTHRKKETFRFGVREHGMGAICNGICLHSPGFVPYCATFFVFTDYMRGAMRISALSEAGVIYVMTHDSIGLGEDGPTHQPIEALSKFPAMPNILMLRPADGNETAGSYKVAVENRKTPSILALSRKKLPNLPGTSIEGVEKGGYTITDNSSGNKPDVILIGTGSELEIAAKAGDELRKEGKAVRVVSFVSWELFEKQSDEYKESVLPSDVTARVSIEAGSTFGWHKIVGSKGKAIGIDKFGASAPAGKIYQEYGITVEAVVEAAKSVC

Question: With `CC(C)N1C(=O)c2ccccc2NS1(=O)=O` [Bentazon] as the molecule, how does the Tolerance factor [1] read?
Answer: 13.4

Question: For `CC(C)N(C)S(=O)(=O)NC(=O)c1cc(-n2c(=O)cc(C(F)(F)F)n(C)c2=O)c(F)cc1Cl` [Saflufenacil], which Tolerance factor [2] is on record?
Answer: 150

Question: And the Tolerance factor [3]?
Answer: 177

Question: Which Tolerance factor [4] does the source give for `C/C=C1/CC2=C(C(=O)OC2=O)[C@H](CCC)[C@H](O)C(=O)C[C@@H]1O` [Cornexistin] here?
Answer: 3.6
